{"source": "paper PMC4001856", "about": "(Brain research, 2013)", "molecular_target": "APP (amyloid precursor protein) (Homo sapiens, UniProt P05067)", "sequence (P05067 230-624 isoform P05067-4)": "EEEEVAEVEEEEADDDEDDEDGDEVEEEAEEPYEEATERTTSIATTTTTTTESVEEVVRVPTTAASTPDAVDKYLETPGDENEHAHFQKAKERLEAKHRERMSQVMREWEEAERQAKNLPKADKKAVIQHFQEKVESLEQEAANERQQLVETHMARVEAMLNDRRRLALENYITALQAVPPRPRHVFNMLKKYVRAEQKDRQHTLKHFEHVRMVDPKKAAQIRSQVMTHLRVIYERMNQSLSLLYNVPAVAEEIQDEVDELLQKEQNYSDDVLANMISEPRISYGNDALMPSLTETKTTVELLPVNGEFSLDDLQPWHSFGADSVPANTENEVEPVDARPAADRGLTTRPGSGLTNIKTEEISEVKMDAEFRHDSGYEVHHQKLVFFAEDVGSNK", "experiment": "SPR", "format": "binding", "data": [{"compound": "CN1[C@@H]2CC[C@H]1C[C@@H](OC(=O)c1c[nH]c3ccccc13)C2", "note": "[tropisetron]", "values": [{"measurement": "Kd", "value": 900, "unit": "nM"}]}]}
